In patent US6852707B1, “Remedies for hyperammonemia” (Suntory Limited, priority 1998, dated 2005):

Assays:
[1] = use against hyperammonemia; cited from earlier work
[2] = test system: rats feeding on high-protein diet; experiment: Effects of xylobiose on rats feeding on high-protein diet (Example 2); assay type: in vivo, rat
Experimental: SD Male rats in a growth stage (15 heads) were fed on a high-protein feed (containing 50% casein) and divided in three groups; the first group consisting of 5 rats were administered 0.5% xylobiose; the second group also consisting of 5 rats were administered 1.0% xylobiose; the third was a control group consisting of 5 rats which were administered distilled water; the animals were let to drink these liquids ad libitum for 3 weeks. Throughout the test period, there were no effects on the amounts of feed and water taken by the rats and the increase in their body weight. The cumulative uptake was 4.7±0.2 g for 0.5% xylobiose and 7.5±0.6 g for 1.0% xylobiose; the daily uptake by the two groups was 0.24 g and 0.37 g, respectively.
At the end of the test, blood was sampled from the rats and the blood ammonia level was measured.

[3] = gastric acid, digestive enzymes (Okazaki et al. 1991, 1992); cited from earlier work

Row | SMILES | documented side effects [1] | effects on amounts of feed and water taken and increase in body weight ([2]; 0.5% and 1.0% xylobiose, throughout the 3-week test period) | blood ammonia level versus control group ([2]; 0.5% xylobiose in drinking water ad libitum for 3 weeks) | blood ammonia level versus control group ([2]; 1.0% xylobiose in drinking water ad libitum for 3 weeks, p<0.05) | stability in the digestive tract [3]
1 | NC[C@@H]1O[C@H](O[C@H]2[C@@H](O)[C@H](O[C@@H]3[C@@H](O)[C@H](N)C[C@H](N)[C@H]3O[C@H]3O[C@H](CN)[C@@H](O)[C@H](O)[C@H]3N)O[C@@H]2CO)[C@H](N)[C@@H](O)[C@@H]1O [neomycin] | renal disorder and deafness |  |  |  | 
2 | OC1OC[C@@H](O[C@@H]2OC[C@@H](O)[C@H](O)[C@H]2O)[C@H](O)[C@H]1O (some centres unmarked) [xylobiose] |  | no effects | lower than the value for the control group | significantly low | can reach the large intestine without being decomposed with gastric acid or digestive enzymes
